The values that follow come from patent US7052859B2, “MUCIN 4 expression as a marker for pancreatic cancer” (The Board of Regents of the University of Nebraska, priority 2000, dated 2006).

One assay concerns MUC4 peptides. In words: Immunogenicity of KLH-conjugated MUC4 peptides in rabbits (serum antibody titre). Format: in vivo, rabbit. The following applies: ten weeks after immunization with KLH-conjugated peptide. As to the method: The present invention also provides antibodies capable of immunospecifically binding to MUC4. Polyclonal antibodies directed toward human MUC4 protein may be prepared according to standard methods. In a preferred embodiment, monoclonal antibodies are prepared, which react immunospecifically with the various epitopes of the MUC4 protein. Monoclonal antibodies have been prepared according to general methods of Kohler and Milstein, following standard protocols.

The subject of assay [1] is MUC4 mRNA expression in PBMC. In words: MUC4 mRNA expression (RT-PCR) in PBMC from healthy volunteers after incubation with cytokines, growth factors or mitogens. It is filed as cell-based, human. The following applies: incubated 24 and 48 hours, serum free, retinoic acid 100 nM, 1 μM, TGF-β2 10, 20 and 200 pg/ml. The protocol: Freshly prepared PBMC (10×10^6 cells) from healthy volunteers were stimulated with PHA (10 μg/ml) and LPS (20 μg/ml, all from Sigma) for 12 and 24 hours. To study the effect of different cytokines and growth factors on the MUC4 mRNA expression, 10 million PBMC were incubated with TGF-β1 (10; 20 and 200 pg/ml), TGF-β2 (10; 20 and 200 pg/ml) (all from R&D systems, Minneapolis, Minn.), retinoic acid (RA) (100 nM; 1 μM) (Sigma), GM-CSF (100 U/ml) (Immunex Corp. Seattle, Wash.), IL-1β (10 ng/ml), IL-6 (10 ng/ml), IL-9 (50 ng/ml), IFNγ (10 and 20 ng/ml), TNFα (10 and 50 ng/ml) or with IFNγ (10 and 20 ng/ml) in combination with TNFα (10 and 50 ng/ml) (all from PeproTech Inc., Rocky Hill, N.J.) for 24 and 48 hours under serum free conditions.
The single step RNA isolation method was used for RNA preparation as previously described (28,29). In brief, cells were homogenized in a denaturing solution containing 4 M guanidine thiocyanate. The homogenate was mixed sequentially with 2 M sodium acetate (pH 4), phenol and chloroform/isoamyl alcohol. […] The RNA pellet was then resuspended in diethyl pyrocarbonate (DEPC)-treated water, and the final RNA concentration was determined spectrophotometrically by measuring the absorbance at 260 nm and 280 nm (DU 640B, Beckman Coulter, Fullstone Calif.). […]

Assay [2] has as its system MUC4 expression in pancreatic cancer cells. The following applies: previous work (31); cited from earlier work.

Ends that are not written are not given here.

In the case of “ATYRPPQPAWMFGD (also: KLH conjugate; listed as Homo sapiens) [MUC4 α, MUC4 peptide synthesized and conjugated to the KLH protein as an immunogen]”, the “antibody titre of rabbit sera reacting specifically with the peptide” value in the assay on MUC4 peptides is 47,338 units. For “GARFSYFLNSAEALP (also: KLH conjugate; listed as Homo sapiens) [MUC4 β, MUC4 peptide synthesized and conjugated to the KLH protein as an immunogen]”, in the assay on MUC4 peptides, the “antibody titre of rabbit sera reacting specifically with the peptide” value is reported as 31,108 units.

B1: TGF-β2: growth factor from R&D systems; produced and secreted by pancreatic cancer cell lines (protein, UniProt P61812 303-414, looked up)
Transforming growth factor …: ALDAAYCFRNVQDNCCLRPLYIDFKRDLGWKWIHEPKGYNANFCAGACPYLWSSDTQHSRVLSLYNTINPEASASPCCVSQDLEPLTILYYIGKTPKIEQLSNMIVKSCKCS
With B1, the “induction of MUC4 mRNA expression in PBMC” value in assay [1] was “neither incubation with retinoic acid and TGF-β2 nor the activation of T-cells and B-cells with PHA and LPS or incubation with various other cytokines induced MUC4 mRNA expression”. Further, the “MUC4 expression after treatment” value in assay [2] is reported as “resulted in MUC4 expression”.
